Results: US20220002806A1, “BIOMARKER” (ERBER AKTIENGESELLSCHAFT, priority 2018, published 2022)

Legend:
miRNAs in uterus tissue = experiment: Small RNA sequencing (RNA-Seq) of miRNAs in uterus tissue of ZEN-exposed piglets; assay type: in vivo, pig (Sus scrofa); settings: for fold change of ssc-miRNA-542-3p in uterus compared to the control group: highest fold change of the group
Source text: Weaned female piglets (sow: Landrace×Large White, boar: Pietrain; 30+/−2 days old) were obtained from a local producer and individually tagged. Piglets were housed in slatted floor pens under controlled environmental conditions. After an acclimatization period of seven days, twenty-four female piglets were selected based on both body weight and vulva size, and allocated to one of four groups (6 animals/group). Piglets received either blank feed (negative control; Ctrl) or feed contaminated with ZEN in three increasing concentrations (ZEN low: 0.17 mg/kg diet; ZEN medium: 1.5 mg/kg diet; ZEN high: 4.6 mg/kg diet). During the 28-day experimental period, each treatment group was given free access to water and the assigned diet. The pigs were observed daily and weighed weekly.
After 28 days of dietary exposure to the experimental diets, pigs were anesthetized by intramuscular injection of ketamine (0.1 mL/kg body weight (b.w.) Narketan®, Vétoquinol GmbH, Ravensburg, Germany) and azaperone (0.03 mL/kg b.w.; Stresnil®, Janssen-Cilag, Neuss, Germany). Subsequently, animals were euthanized by intracardial injection of T61® (Intervet, UnterschleiBheim, Germany; 0.1 ml/kg b.w.). The whole reproductive tract was collected, weighed and examined for any clinical signs. Small pieces of the corpus uteri and the mid-jejunum were dissected, placed into 1 mL of RNAlater, and stored overnight at 4° C. The next day, all the tissue samples were transferred to −80° C. for long-term storage, and until processed for transcriptomics analysis.
miRNA Extraction and Library Preparation: A total of 18 animals was used for investigations on the miRNA profile in the tissues: 6 from Ctrl, 4 from ZEN low, 4 from ZEN medium, and 4 from ZEN high. About 30 mg of tissue from uterus or jejunum was disrupted via a bead-beating step, and the total RNA, including RNA from approximately 18 nucleotides upwards, was extracted and purified with the miRNeasy Mini Kit (Qiagen, Hilden, Germany), following the manufacturer's instructions. The concentration of RNA was first estimated on the Nanodrop (Termo Scientifc NanoDrop 2000, USA), and again with the Agilent 2100 Bioanalyzer (Agilent Technologies, Germany) during the measurement of the RIN for determining the RNA quality. In total 1 μg of total RNA was used for construction of small RNA sequencing libraries using the NEBNext Multiplex SmallRNA Library preparation set for Illumina (New England Biolabs). Adapter-ligated total RNA was reverse transcribed into cDNA, which was used as template for PCR amplification (15 cycles) using Illumina's SR Primer and Index Primers 1-18. Barcoded DNA libraries were purified using the QIAQuick PCR purification protocol (Qiagen, Hilden, Germany) and quantified using the DNA 1000 high sensitivity chip (Agilent Technologies, Germany). Purified samples were pooled at equimolar (50 nM) concentration. Size selection was performed using gel purification to select for insert sizes between 18 and 50 nucleotides. The final multiplexed (n=18) libraries were sequenced on a NextSeq 500 sequencing instrument according to the manufacturer instructions. Raw data was de-multiplexed and FASTQ files for each sample was generated using the bcl2fastq software (Illumina inc.). FASTQ data was checked using the FastQC online tool (http://www.bioinformatics.babraham.ac.uk/projects/fastqc/).
RNA sequencing (RNA-Seq) Bioinformatics Analysis: Total reads were adapter trimmed using Cutadapt and quality filtered (Q-Score >30) using the FastQC tool. Trimmed and quality filtered reads were aligned to reference miRNA sequences in miRBase release 21 (www.mirbase.org; Kozomora and Griffiths-Jones. 2014. Nucleid Acids Research, 42, D68-D73) using bowtie2. Subsequently, reads were mapped against the Sus scrofa genome assembly Sscrofa10.2 as well as Ensembl small non-coding RNA reference databases. Reads were normalized to the total read count per library to generate tags per million (TPM) values. […]

estrogen receptors α = estrogen receptors α (Homo sapiens, UniProt P03372); settings: Zinedine et al. 2007; cited from earlier work
Chain of estrogen receptors α (P03372 whole entry): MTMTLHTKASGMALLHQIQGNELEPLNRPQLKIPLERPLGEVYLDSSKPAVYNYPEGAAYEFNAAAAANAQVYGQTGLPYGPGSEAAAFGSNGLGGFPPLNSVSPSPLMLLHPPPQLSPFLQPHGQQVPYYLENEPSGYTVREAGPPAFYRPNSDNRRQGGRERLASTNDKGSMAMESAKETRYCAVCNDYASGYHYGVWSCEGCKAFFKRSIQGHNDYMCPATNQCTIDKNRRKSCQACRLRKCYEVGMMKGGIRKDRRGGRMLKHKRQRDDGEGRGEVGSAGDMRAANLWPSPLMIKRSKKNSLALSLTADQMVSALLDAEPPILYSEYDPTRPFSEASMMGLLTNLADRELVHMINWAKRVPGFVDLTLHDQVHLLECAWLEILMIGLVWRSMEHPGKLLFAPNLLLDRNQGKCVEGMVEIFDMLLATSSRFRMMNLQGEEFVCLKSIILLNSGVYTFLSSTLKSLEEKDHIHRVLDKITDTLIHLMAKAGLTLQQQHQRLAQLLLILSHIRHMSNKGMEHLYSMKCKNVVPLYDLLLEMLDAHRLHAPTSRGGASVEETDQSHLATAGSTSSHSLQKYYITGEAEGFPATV

[1] = Ctrl vs ZEN high (4.6 mg/kg diet), 28 days in feed
[2] = Ctrl vs ZEN low (0.17 mg/kg diet), 28 days in feed
[3] = ZEN high group (4.6 mg/kg diet) vs Ctrl, 28 days in feed
[4] = both ZEN medium (1.5 mg/kg diet) and ZEN high (4.6 mg/kg diet) group vs Ctrl, 28 days in feed

## C[C@H]1CCCC(=O)CCC/C=C/c2cc(O)cc(O)c2C(=O)O1 [ZEN, (2E,11S)-15,17-dihydroxy-11-methyl-12-oxabicyclo[12.4.0]octadeca-1(18),2,14,16-tetraene-7,13-dione]
miRNAs in uterus tissue; [1]
  log2 fold change of hsa-miR-135b-5p in uterus: log2 fold change Ctrl vs ZEN high ≤ −1.5,
  log2 fold change of hsa-miR-301a-5p in uterus: log2 fold change Ctrl vs ZEN high ≤ −1.5,
  log2 fold change of put-miR-300 in uterus: ZEN high ≤ −1.5, TPM > 10
  log2 fold change of ssc-miR-22-3p in uterus: Ctrl vs ZEN high ≥ 1.5; TPM > 10
  log2 fold change of ssc-miR-129a in uterus: log2 fold change Ctrl vs ZEN high < −1.5,
  log2 fold change of ssc-miR-135 in uterus: ZEN high ≤ −1.5, TPM > 10
  log2 fold change of ssc-miR-143-5p in uterus: ZEN high ≥ −1.5, TPM > 10
  log2 fold change of ssc-miR-187 in uterus: Crtrl vs ZEN high ≤ −1.5
  log2 fold change of ssc-miR-204 in uterus: log2 fold change Ctrl vs ZEN high ≤ −1.5,
  log2 fold change of ssc-miR-432-5p in uterus: change Ctrl vs ZEN high ≥ 1.5, specificity
  log2 fold change of ssc-miR-493-3p in uterus: log2 fold change Ctrl vs ZEN high ≥ 1.5,
  log2 fold change of ssc-miR-542-3p in uterus: ZEN high ≥ 1.5, TPM > 10
  log2 fold change of ssc-miR-758 in uterus: change Ctrl vs ZEN high ≥ 1.5
miRNAs in uterus tissue; [2]
  log2 fold change of hsa-miR-135b-5p in uterus: log2 fold change Ctrl vs ZEN low ≤ −0.3,
  log2 fold change of hsa-miR-301a-5p in uterus: log2 fold change Ctrl vs ZEN low ≤ −0.3,
  log2 fold change of ssc-miR-22-3p in uterus: change Ctrl vs ZEN low ≥ 0.3, log2 fold
  log2 fold change of ssc-miR-133a-5p in uterus: change Ctrl vs ZEN low ≥ 0.3, TPM > 10
  log2 fold change of ssc-miR-195 in uterus: change Ctrl vs ZEN low ≥ 0.3, TPM > 10
  log2 fold change of ssc-miR-486 in uterus: change Ctrl vs ZEN low ≥ 0.3, TPM > 10
  log2 fold change of ssc-miR-493-5p in uterus: change Ctrl vs ZEN low ≥ 0.3, TPM > 10,
  log2 fold change of ssc-miR-497 in uterus: change Ctrl vs ZEN low ≥ 0.3, TPM > 10
  log2 fold change of ssc-miR-708-3p in uterus: low ≤ −0.3, TPM > 10
miRNAs in uterus tissue; Ctrl vs ZEN medium (1.5 mg/kg diet), 28 days in feed
  log2 fold change of ssc-miR-187 in uterus: vs ZEN medium ≤ −0.3, log2 fold change
miRNAs in uterus tissue; ZEN high (4.6 mg/kg diet)
  fold change of ssc-miRNA-542-3p in uterus compared to the control group: +12.6
miRNAs in uterus tissue; ZEN high (4.6 mg/kg diet), lowest fold change of the group
  fold change of ssc-miRNA-204 in uterus compared to the control group: −4.1
miRNAs in uterus tissue; [3]
  Response to ZEN treatment in uterus: hsa-miR-135b-5p: Significantly decreased in ZEN high
  Response to ZEN treatment in uterus: hsa-miR-301a-5p: Significantly decreased in ZEN high
  Response to ZEN treatment in uterus: ssc-miR-22-3p: Significantly increased in ZEN high group,
  Response to ZEN treatment in uterus: ssc-miR-22-5p: Significantly increased in ZEN high group,
  Response to ZEN treatment in uterus: ssc-miR-34a: Significantly increased in ZEN high group
  Response to ZEN treatment in uterus: ssc-miR-125a: Significantly decreased in ZEN high
  Response to ZEN treatment in uterus: ssc-miR-125b: Significantly decreased in ZEN high
  Response to ZEN treatment in uterus: ssc-miR-127: Significantly increased in ZEN high group
  Response to ZEN treatment in uterus: ssc-miR-129a: Significantly decreased in ZEN high
  Response to ZEN treatment in uterus: ssc-miR-133a-5p: Significantly increased in ZEN high group,
  Response to ZEN treatment in uterus: ssc-miR-135: Significantly decreased in ZEN high
  Response to ZEN treatment in uterus: ssc-miR-136: Significantly increased in ZEN high group,
  Response to ZEN treatment in uterus: ssc-miR-140-3p: Significantly increased in ZEN high group,
  Response to ZEN treatment in uterus: ssc-miR-142-3p: Significantly increased in ZEN high group,
  Response to ZEN treatment in uterus: ssc-miR-146b: Significantly decreased in ZEN high
  Response to ZEN treatment in uterus: ssc-miR-182: Significantly increased in ZEN high group
  Response to ZEN treatment in uterus: ssc-miR-183: Significantly increased in ZEN high group,
  Response to ZEN treatment in uterus: ssc-miR-195: Significantly increased in ZEN high group,
  Response to ZEN treatment in uterus: ssc-miR-204: Significantly decreased in ZEN high
  Response to ZEN treatment in uterus: ssc-miR-369: Significantly increased in ZEN high group
  Response to ZEN treatment in uterus: ssc-miR-378: Significantly increased in ZEN high group
  Response to ZEN treatment in uterus: ssc-miR-432-5p: Significantly increased in ZEN high group,
  Response to ZEN treatment in uterus: ssc-miR-455-3p: Significantly increased in ZEN high group,
  Response to ZEN treatment in uterus: ssc-miR-455-5p: Significantly increased in ZEN high group,
  Response to ZEN treatment in uterus: ssc-miR-486: Significantly increased in ZEN high group,
  Response to ZEN treatment in uterus: ssc-miR-493-3p: Significantly increased in ZEN high group,
  Response to ZEN treatment in uterus: ssc-miR-493-5p: Significantly increased in ZEN high group,
  Response to ZEN treatment in uterus: ssc-miR-708-3p: Significantly decreased in ZEN high
  Response to ZEN treatment in uterus: ssc-miR-758: Significantly increased in ZEN high group,
miRNAs in uterus tissue; ZEN medium (1.5 mg/kg diet) and high (4.6 mg/kg diet) group vs Ctrl, 28 days in feed
  Response to ZEN treatment in uterus: put-miR-300: Significantly decreased in ZEN medium
miRNAs in uterus tissue; ZEN medium (1.5 mg/kg diet)
  fold change of ssc-miRNA-542-3p in uterus compared to the control group: +3.9
miRNAs in uterus tissue; ZEN medium (1.5 mg/kg diet), lowest fold change of the group
  fold change of ssc-miRNA-187 in uterus compared to the control group: −3.4
miRNAs in uterus tissue; [4]
  Response to ZEN treatment in uterus: ssc-miR-1: Significantly increased in both ZEN
  Response to ZEN treatment in uterus: ssc-miR-143-5p: Significantly increased in both ZEN
  Response to ZEN treatment in uterus: ssc-miR-181c: Significantly decreased in both ZEN
  Response to ZEN treatment in uterus: ssc-miR-187: Significantly decreased in both ZEN
  Response to ZEN treatment in uterus: ssc-miR-206: Significantly increased in both ZEN
  Response to ZEN treatment in uterus: ssc-miR-335: Significantly decreased in both ZEN
  Response to ZEN treatment in uterus: ssc-miR-424-5p: Significantly increased in both ZEN
  Response to ZEN treatment in uterus: ssc-miR-450a: Significantly increased in both ZEN
  Response to ZEN treatment in uterus: ssc-miR-450b-5p: Significantly increased in both ZEN
  Response to ZEN treatment in uterus: ssc-miR-450c-5p: Significantly increased in both ZEN
  Response to ZEN treatment in uterus: ssc-miR-497: Significantly increased in both ZEN
  Response to ZEN treatment in uterus: ssc-miR-503: Significantly increased in both ZEN
  Response to ZEN treatment in uterus: ssc-miR-542-3p: Significantly increased in both ZEN
  Response to ZEN treatment in uterus: ssc-miR-7135-3p: Significantly increased in both ZEN
Estrogen receptors α
  agonist action on estrogen receptor α: full
